Results reported in US20260297042A1, “BIARYLAMIDE DERIVATIVES AND THEIR USE AS PKMYT1 INHIBITORS” (CANCER RESEARCH TECHNOLOGY LIMITED, priority 2023, published 2026).

Assays:
Human PKMYT1 = molecular target: T1, Human PKMYT1 (Homo sapiens, UniProt Q99640); experiment: PKMYT1 biochemical ADP-Glo enzymatic assay; conditions: ADP-Glo
T1 construct: Human PKMYT1 75-362 was cloned as a TEV cleavable 6xHis fusion; 6xHis (TEV cleavable) (cleaved yes); made in house; host or cells: bacterial cells
T1 sequence (Q99640 75-362): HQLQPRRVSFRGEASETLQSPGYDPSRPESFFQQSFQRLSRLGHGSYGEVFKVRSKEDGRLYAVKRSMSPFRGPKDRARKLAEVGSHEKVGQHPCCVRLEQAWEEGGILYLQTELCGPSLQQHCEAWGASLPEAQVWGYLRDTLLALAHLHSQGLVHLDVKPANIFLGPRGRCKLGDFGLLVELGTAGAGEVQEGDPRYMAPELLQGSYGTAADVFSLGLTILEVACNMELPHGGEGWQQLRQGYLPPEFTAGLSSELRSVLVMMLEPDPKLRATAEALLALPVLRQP
In short: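 Purified untagged human PKMYT1 75-362 at 15 nM final was tested in HEPES pH 7.5 with MgCl2, EGTA, Brij-35 and 1% DMSO. Intrinsic ATPase activity was measured with 500 uM ATP over 60 min at 26° C. ADP-Glo luminescence was read and IC50 fitted from 10-point, 3-fold dilution curves.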

WEE1 = molecular target: T2, WEE1 (Homo sapiens, UniProt P30291); experiment: Selectivity versus WEE1 assay (ADP-Glo enzymatic assay); assay type: biochemical; conditions: for IC50: ADP-Glo; for PKMYT1 vs. WEE1 selectivity: fold difference in selectivity for PKMYT1 over WEE1
T2 construct: purchased Thermo Fisher PR7373A
T2 sequence (P30291 whole entry): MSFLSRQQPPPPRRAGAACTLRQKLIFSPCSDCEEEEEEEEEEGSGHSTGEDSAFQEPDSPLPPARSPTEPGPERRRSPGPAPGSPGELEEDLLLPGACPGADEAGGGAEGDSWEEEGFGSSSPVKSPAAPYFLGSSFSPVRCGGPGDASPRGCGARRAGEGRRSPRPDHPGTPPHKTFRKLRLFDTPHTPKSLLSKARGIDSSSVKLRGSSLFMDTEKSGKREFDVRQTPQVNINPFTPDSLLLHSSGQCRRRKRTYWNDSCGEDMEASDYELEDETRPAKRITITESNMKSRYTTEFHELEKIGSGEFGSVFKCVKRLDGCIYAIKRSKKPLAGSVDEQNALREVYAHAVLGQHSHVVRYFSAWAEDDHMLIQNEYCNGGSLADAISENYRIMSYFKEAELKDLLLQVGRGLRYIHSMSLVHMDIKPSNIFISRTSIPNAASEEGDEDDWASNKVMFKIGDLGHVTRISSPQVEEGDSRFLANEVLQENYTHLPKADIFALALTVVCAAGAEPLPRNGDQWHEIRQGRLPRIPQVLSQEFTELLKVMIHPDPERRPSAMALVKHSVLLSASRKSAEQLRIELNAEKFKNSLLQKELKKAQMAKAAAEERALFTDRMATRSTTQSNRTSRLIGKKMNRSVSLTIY
In short: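 WEE1 at 15 nM final in 50 mM HEPES pH 7.5, 10 mM MgCl2, 1 mM EGTA, 0.01% Brij-35, 1% DMSO; reaction started with 30 µM ATP, 60 min at 26 °C. ADP-Glo luminescence; IC50 from dose-response curves, replicates within 3-fold and r2 >0.9.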

[1] = 15 nM PKMYT1 kinase domain, 500 µM ATP, 60 minutes at 26° C., banded
[2] = 15 nM WEE1, 60 minutes at 26° C., banded
[3] = banded, ">N" = at least in this band but could be higher
[4] = PKMYT1 kinase domain 15 nM, banded values

SMILES | IC50 (Human PKMYT1; [1]) [nM] | IC50 (WEE1; [2]) [nM] | PKMYT1 vs. WEE1 selectivity (WEE1; [3]) | IC50 (Human PKMYT1; [4]) [nM] | IC50 (WEE1; WEE1 15 nM, banded values) [nM] | PKMYT1 vs. WEE1 selectivity (WEE1; banded)
Cc1ccc(O)c(C)c1NC(=O)c1cnc(Nc2ccn(C3CCN(C(=O)OC(C)(C)C)CC3)n2)s1 [BAA-031] | 50 to 1000 | > 11000 | >X (100-<1000 fold) | – | – | –
Cc1ccc(O)c(C)c1NC(=O)c1cnc(Nc2ccn(CC(=O)NC[C@@H](C)O)n2)s1 [BAA-170, N-(3-hydroxy-2,6-dimethyl-phenyl)-2-[[1-[2-[[(2R)-2-hydroxypropyl]amino]-2-oxo-ethyl]pyrazol-3-yl]amino]thiazole-5-carboxamide] | < 50 | > 11000 | Y (1000-5000 fold) | – | – | –
Cc1ccc(O)c(C)c1NC(=O)c1cnc(Nc2nn(C)cc2C(N)=O)s1 [BAA-254, 2-((4-carbamoyl-1-methyl-1H-pyrazol-3-yl)amino)-N-(3-hydroxy-2,6-dimethylphenyl)thiazole-5-carboxamide] | 50 to 1000 | > 11000 | Y (1000-5000 fold) | – | – | –
Cc1ccc(O)c(C)c1NC(=O)c1cnc(Nc2nc(CO)cs2)s1 [BAA-018] | < 50 | > 11000 | X (100-<1000 fold) | – | – | –
Cc1ccc(O)c(C)c1NC(=O)c1cnc(Nc2cc(C(=O)OC(C)(C)C)n(C)n2)s1 [BAA-253, tert-butyl 3-((5-((3-hydroxy-2,6-dimethylphenyl)carbamoyl)thiazol-2-yl)amino)-1-methyl-1H-pyrazole-5-carboxylate] | 50 to 1000 | > 11000 | X (100-<1000 fold) | – | – | –
Cc1ccc(O)c(C)c1NC(=O)c1cnc(Nc2cc(C)n(CCC(=O)O)n2)s1 [BAA-241, 3-(3-((5-((3-hydroxy-2,6-dimethylphenyl)carbamoyl)thiazol-2-yl)amino)-5-methyl-1H-pyrazol-1-yl)propanoic acid] | 50 to 1000 | > 11000 | X (100-<1000 fold) | – | – | –
Cc1ccc(O)c(C)c1NC(=O)c1cnc(Nc2ccn(CC(=O)N[C@H](C)CO)n2)s1 [BAA-164] | < 50 | > 11000 | Y (1000-5000 fold) | – | – | –
Cc1ccc(O)c(C)c1NC(=O)c1cnc(Nc2ccn(CC3CCOC3)n2)s1 (stereo not drawn) [BAA-032, N-(3-hydroxy-2,6-dimethyl-phenyl)-2-[[1-(tetrahydrofuran-3-ylmethyl)pyrazol-3-yl]amino]thiazole-5-carboxamide] | 50 to 1000 | 1000 to 11000 | W (10-<100 fold) | – | – | –
CCCN1CC[C@@H](n2ccc(Nc3ncc(C(=O)Nc4c(C)ccc(O)c4C)s3)n2)C1 [BAA-114, N-(3-Hydroxy-2,6-dimethyl-phenyl)-2-[[1-[(3R)-1-propylpyrrolidin-3-yl]pyrazol-3-yl]amino]thiazole-5-carboxamide] | 50 to 1000 | > 11000 | >X (100-<1000 fold) | – | – | –
Cc1ccc(O)c(C)c1NC(=O)c1cnc(Nc2cc(C(N)=O)nn2C)s1 [BAA-131, 2-[(5-Carbamoyl-2-methyl-pyrazol-3-yl)amino]-N-(3-hydroxy-2,6-dimethyl-phenyl)thiazole-5-carboxamide] | < 50 | > 11000 | Y (1000-5000 fold) | – | – | –
Cc1ccc(O)c(C)c1NC(=O)c1cnc(Nc2cc(CO)n(C)n2)s1 [BAA-251, N-(3-hydroxy-2,6-dimethylphenyl)-2-((5-(hydroxymethyl)-1-methyl-1H-pyrazol-3-yl)amino)thiazole-5-carboxamide] | < 50 | 1000 to 11000 | X (100-<1000 fold) | – | – | –
COCCOCCNC(=O)Cn1ccc(Nc2ncc(C(=O)Nc3c(C)ccc(O)c3C)s2)n1 [BAA-134, N-(3-hydroxy-2,6-dimethyl-phenyl)-2-[[1-[2-[2-(2-methoxyethoxy)ethylamino]-2-oxo-ethyl]pyrazol-3-yl]amino]thiazole-5-carboxamide] | < 50 | > 11000 | Y (1000-5000 fold) | – | – | –
Cc1ccc(O)c(C)c1NC(=O)c1cnc(Nc2ccn([C@@H]3CCN(C(=O)C(F)(F)c4ccccc4)C3)n2)s1 [BAA-099, 2-[[1-[(3R)-1-(2,2-Difluoro-2-phenyl-acetyl)pyrrolidin-3-yl]pyrazol-3-yl]amino]-N-(3-hydroxy-2,6-dimethyl-phenyl)thiazole-5-carboxamide] | 50 to 1000 | > 11000 | >X (100-<1000 fold) | – | – | –
COCc1cc(Nc2ncc(C(=O)Nc3c(C)ccc(O)c3C)s2)nn1C [BAA-252, N-(3-hydroxy-2,6-dimethylphenyl)-2-((5-(methoxymethyl)-1-methyl-1H-pyrazol-3-yl)amino)thiazole-5-carboxamide] | 50 to 1000 | 1000 to 11000 | X (100-<1000 fold) | – | – | –
Cc1ccc(O)c(C)c1NC(=O)c1cnc(Nc2ccc(F)cc2F)s1 [BAA-277, 2-((2,4-difluorophenyl)amino)-N-(3-hydroxy-2,6-dimethylphenyl)thiazole-5-carboxamide] | 50 to 1000 | > 11000 | X (100-<1000 fold) | – | – | –
Cc1ccc(O)c(C)c1NC(=O)c1cnc(Nc2ccn([C@@H]3CCN(C(=O)C(C)C)C3)n2)s1 [BAA-086] | 50 to 1000 | > 11000 | >Y (1000-5000 fold) | – | – | –
Cc1ccc(O)c(C)c1NC(=O)c1cnc(Nc2ccn(CC(=O)N3C[C@@H](C)N[C@@H](C)C3)n2)s1 [BAA-227, 2-((1-(2-((3R,5S)-3,5-dimethylpiperazin-1-yl)-2-oxoethyl)-1H-pyrazol-3-yl)amino)-N-(3-hydroxy-2,6-dimethylphenyl)thiazole-5-carboxamide] | < 50 | > 11000 | X (100-<1000 fold) | – | – | –

More lines, now with the values ahead:

IC50 (Human PKMYT1; [1]) [nM] | IC50 (WEE1; [2]) [nM] | PKMYT1 vs. WEE1 selectivity (WEE1; [3]) | IC50 (Human PKMYT1; [4]) [nM] | IC50 (WEE1; WEE1 15 nM, banded values) [nM] | PKMYT1 vs. WEE1 selectivity (WEE1; banded) | SMILES
50 to 1000 | 1000 to 11000 | W (10-<100 fold) | – | – | – | Cc1cn(-c2cncc(C(F)(F)F)c2)nc1Nc1ncc(C(=O)Nc2c(C)ccc(O)c2C)s1 [BAA-380, N-(3-hydroxy-2,6-dimethylphenyl)-2-((4-methyl-1-(5-(trifluoromethyl)pyridin-3-yl)-1H-pyrazol-3-yl)amino)thiazole-5-carboxamide]
– | – | – | 50 to 1000 | > 11000 | W (10-<100 fold) | Cc1cn(CCN(C)C)nc1Nc1ncc(C(=O)Nc2c(C)ccc(O)c2C)s1 [BAA-501, 2-((1-(2-(dimethylamino)ethyl)-4-methyl-1H-pyrazol-3-yl)amino)-N-(3-hydroxy-2,6-dimethylphenyl)thiazole-5-carboxamide]
50 to 1000 | > 11000 | Y (1000-5000 fold) | – | – | – | Cc1ccc(O)c(C)c1NC(=O)c1cnc(NCc2ccncc2)s1 [BAA-350, N-(3-hydroxy-2,6-dimethylphenyl)-2-((pyridin-4-ylmethyl)amino) thiazole-5-carboxamide]
– | – | – | < 50 | > 11000 | Y (1000-5000 fold) | Cc1ccnc(Nc2ncc(C(=O)Nc3c(C)ccc(O)c3C)s2)n1 [BAA-567, N-(3-hydroxy-2,6-dimethylphenyl)-2-((4-methylpyrimidin-2-yl)amino)thiazole-5-carboxamide]
< 50 | 1000 to 11000 | X (100-<1000 fold) | – | – | – | Cc1ccc(O)c(C)c1NC(=O)c1cnc(Nc2ccc(NC(=O)CC(C)C)cn2)s1 [BAA-299, N-(3-hydroxy-2,6-dimethylphenyl)-2-((5-(3-methylbutanamido)pyridin-2-yl)amino)thiazole-5-carboxamide]
< 50 | > 11000 | Y (1000-5000 fold) | – | – | – | Cc1ccc(O)c(C)c1NC(=O)c1cnc(Nc2ncc3cc(F)ccc3n2)s1 [BAA-296, 2-((6-fluoroquinazolin-2-yl)amino)-N-(3-hydroxy-2,6-dimethylphenyl)thiazole-5-carboxamide]
1000 to 11000 | > 11000 | W (10-<100 fold) | – | – | – | Cc1nc(CNc2ncc(C(=O)Nc3c(C)ccc(O)c3C)s2)no1 [BAA-364, N-(3-hydroxy-2,6-dimethylphenyl)-2-(((5-methyl-1,2,4-oxadiazol-3-yl)methyl)amino) thiazole-5-carboxamide]
– | – | – | 50 to 1000 | > 11000 | Y (1000-5000 fold) | Cc1ccc(O)c(C)c1NC(=O)c1cnc(Nc2cn(CC(=O)N3CCCC3)nc2C)s1 [BAA-558, N-(3-hydroxy-2,6-dimethylphenyl)-2-((3-methyl-1-(2-oxo-2-(pyrrolidin-1-yl)ethyl)-1H-pyrazol-4-yl)amino)thiazole-5-carboxamide]
– | – | – | 50 to 1000 | > 11000 | X (100-<1000 fold) | CCc1ccccc1Nc1ncc(C(=O)Nc2c(C)ccc(O)c2C)s1 [BAA-484, 2-((2-ethylphenyl)amino)-N-(3-hydroxy-2,6-dimethylphenyl)thiazole-5-carboxamide]
